What was measured:
[1] = target: Platelet-activating factor receptor (Mus musculus) (UniProt Q62035); assay: Protection of PAF induced lethality in mouse after intraperitoneal dose of 1 mg/kg in saline 0.5 hr prior to an LD90 of PAF; format: functional, organism-based; parameters: dose 1 mg/kg
[2] = test system: Oryctolagus cuniculus; assay: Protection of PAF induced lethality in rabbit after intraperitoneal dose of 1 mg/kg in saline 0.5 hr prior to an LD90 of PAF; format: functional; settings: ip

Chain of Platelet-activating factor receptor (Mus musculus) (Q62035 whole entry): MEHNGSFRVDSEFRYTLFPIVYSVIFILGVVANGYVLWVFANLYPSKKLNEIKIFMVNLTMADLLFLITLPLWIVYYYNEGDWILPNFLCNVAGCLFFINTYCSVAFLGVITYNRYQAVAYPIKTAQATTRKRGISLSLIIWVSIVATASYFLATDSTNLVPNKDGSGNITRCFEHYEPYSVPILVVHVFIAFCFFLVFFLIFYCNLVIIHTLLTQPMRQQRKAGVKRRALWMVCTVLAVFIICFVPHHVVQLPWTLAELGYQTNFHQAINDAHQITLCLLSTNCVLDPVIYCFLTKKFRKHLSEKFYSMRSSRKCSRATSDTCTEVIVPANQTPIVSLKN

Structure (SMILES) | Survival [1] [%] | survival at 1 mg/kg [2] [%]
CCCCCCCCCCCCCCOc1ccc(CNC(=O)c2cccc[n+]2CC)cc1 | 36 | 
CCCCCCCCCCCCCCOc1ccc(CN(Cc2cc[n+](C)cc2)C(C)=O)cc1 |  | 0
CCCCCCCCCCCCCCOc1ccc(C(=O)NC(=O)c2ccc[n+](CCC)c2)cc1OC | 42 | 
CCCCCCCCCCCCCCOc1ccc(COC(=O)NCc2cccc[n+]2CC)cc1 | 36 | 
CCCCCCCCCCCCCCOc1ccc(CN(Cc2ccc[n+](C)c2)C(C)=O)cc1 | 38 | 
CCCCCCCCCCCCCCOc1ccc(C(=O)N(Cc2cccc[n+]2C)C(C)=O)cc1 | 27 | 
CCCCCCCCCCCCCCOc1ccc(CN(Cc2cccc[n+]2CC)C(C)=O)cc1 | 40 | 
CCCCCCCCCCCCCCOc1ccc(C(=O)N(Cc2cccc[n+]2CC)C(C)=O)cc1OC | 58 | 33
CCCCCCCCCCCCCCOc1ccc(C(=O)N(Cc2cccc[n+]2CCC)C(C)=O)cc1OC | 47 | 
CCCCCCCCCCCCCCOc1cccc(OP(=O)([O-])Oc2cccc(C[n+]3csc(C)c3)c2)c1C(=O)OC | 85 | 53
CCCCCCCCCCCCCCCCCCNC(=O)Oc1ccc(C(=O)N(Cc2cccc[n+]2C)C(C)=O)cc1C(C)(C)C | 29 | 
CCCCCCCCCCCCCCOc1ccc(C(=O)NC(=O)c2cc[n+](CCC)cc2)cc1OC | 33 | 
CCCCCCCCCCCCCCOc1ccc(C(=O)N(Cc2cccc[n+]2C)C(C)=O)cc1C(C)(C)C | 64 | 100
CCCCCCCCCCCCCCOc1ccc(C(=O)N(Cc2cccc[n+]2C)C(C)=O)cc1OCCCCCCCCCCCCCC | 36 | 
CCCCCCCCCCCCCCOc1ccccc1CN(Cc1cccc[n+]1C)C(C)=O | 23 | 
CCCCCCCCCCCCCCOc1ccc(C(=O)N(Cc2cc[n+](C)cc2)C(C)=O)cc1C(C)(C)C | 27 | 
CCCCCCCCCCCCCCOc1ccc(C(=O)N(Cc2cccc[n+]2Cc2ccccc2)C(C)=O)cc1 | 0 | 
CCCCCCCCCCCCCCOc1cc(C(=O)N(Cc2cccc[n+]2C)C(C)=O)ccc1OC | 21 | 
CCCCCCCOc1ccc(C(=O)N(Cc2cccc[n+]2C)C(C)=O)cc1OCCCCCCC | 45 | 0
CCCCCCCCCCCCCCOc1ccc(COC(=O)N(Cc2cccc[n+]2C)C(C)=O)cc1 | 40 | 
CCCCCCCCCCCCCCOc1ccc(C(=O)N(Cc2ccc[n+](C)c2)C(C)=O)cc1C(C)(C)C | 17 | 
CCCCCCCCCCCCCCOc1ccc(C(=O)N(Cc2cccc[n+]2C)C(C)=O)cc1OC | 58 | 75
CCCCCCCCCCOc1ccc(C(=O)N(Cc2cccc[n+]2C)C(C)=O)cc1C(C)(C)C | 50 | 
